Results reported in the RepoRT retention time repository (doi:10.1007/s00216-021-03828-0).

Legend:
Conditions in all cases: stereoisomer not certain
[1] = RP, Merck Supelco Ascentis Express C18, 100 × 2.1 mm, 2 µm, 39 °C, 0.3 mL/min, estimated dead time 0.73 min; A: water + 0.1% formic acid, pH 3; B: acetonitrile + 0.1% formic acid, pH 3; gradient (min/%B) 0/5 2/5 17/99.9 20/99.9
[2] = RP, Merck Supelco Ascentis Express C18, 100 × 2.1 mm, 2 µm, 40 °C, 0.4 mL/min, estimated dead time 0.55 min; A: water + 0.1% formic acid, pH 3; B: acetonitrile + 0.1% formic acid, pH 3; gradient (min/%B) 0/5 2/5 17/99.9 20/99.9
[3] = RP, Merck Supelco Ascentis Express C18, 100 × 2.1 mm, 2 µm, 40 °C, 0.25 mL/min, estimated dead time 0.88 min; A: water + 0.1% formic acid, pH 3; B: acetonitrile + 0.1% formic acid, pH 3; gradient (min/%B) 0/5 2/5 17/99.9 20/99.9
[4] = RP, Merck Supelco Ascentis Express C18, 100 × 2.1 mm, 2 µm, 40 °C, 0.2 mL/min, estimated dead time 1.1 min; A: water + 0.1% formic acid, pH 3; B: acetonitrile + 0.1% formic acid, pH 3; gradient (min/%B) 0/5 2/5 17/99.9 20/99.9
[5] = as above; remark: listed apart in the source

Structure (SMILES) | LC retention time [1] | LC retention time [2] | LC retention time [3] | LC retention time [4] | LC retention time [5]
CCCCCCCCCCCCCCCC(O)C(N)CO (centres undefined) [SPHINGANINE] | 10.9 min | 10.6 min | 11.5 min | 12.1 min | 
CC(O)c1ccccc1 (centres undefined) [1-PHENYLETHANOL] | 7.38 min | 6.7 min | 7.9 min | 8.6 min | 
CNCCc1c[nH]c2ccccc12 [N-METHYLTRYPTAMINE] | 3.89 min | 3.32 min | 4.33 min | 4.88 min | 
c1ccc2ncccc2c1 [QUINOLINE] |  | 2.49 min | 9 min | 10.2 min | 
O=C([O-])c1ccccn1 [PICOLINATE] |  |  |  |  | 1.37 min
NCC(O)c1ccc(O)c(O)c1 (centres undefined) [NORADRENALINE] |  | 1.07 min |  |  | 
O=C(O)c1cccnc1C(=O)O [QUINOLINATE] | 0.937 min |  | 1.07 min | 1.38 min | 1.38 min
Nc1ccccc1O [2-AMINOPHENOL] |  |  |  | 1.34 min | 
CC12CCC(=O)C=C1CCC1C2C(O)CC2(C)C(C(=O)CO)CCC12 (centres undefined) [CORTICOSTERONE] | 8.25 min | 7.73 min | 8.66 min | 9.16 min | 
Cn1c(=O)c2c(ncn2C)n(C)c1=O [CAFFEINE] | 4.12 min | 3.63 min | 4.48 min | 4.96 min | 
O=c1cccc(O)[nH]1 [2,6-DIHYDROXYPYRIDINE] | 0.947 min | 0.73 min | 1.19 min | 1.53 min | 
O=C/C=C/c1ccccc1 [TRANS-CINNAMALDEHYDE] | 10.7 min | 10.1 min | 11.1 min | 11.7 min | 
NCCc1c[nH]c2ccc(O)cc12 [SEROTONIN] | 1.12 min | 0.857 min | 1.35 min | 1.77 min | 
NCC(O)c1ccccc1 (centres undefined) [PHENYLETHANOLAMINE] | 0.883 min | 0.673 min | 1.09 min | 1.4 min | 
Nc1ncnc2c1ncn2C1OC(CO)C2OP(=O)(O)OC21 (centres undefined) [ADENOSINE 2',3'-CYCLIC PHOSPHATE] |  |  |  | 1.34 min | 1.32 min
Cn1cnc2c1c(=O)[nH]c(=O)n2C [THEOBROMINE] | 1.78 min | 1.4 min | 2.12 min | 2.69 min | 
CC=CC=CC(=O)[O-] [SORBATE] | 5.93 min | 5.28 min | 6.4 min | 7.02 min | 
NC(Cc1c[nH]c2ccccc12)C(=O)O (centres undefined) [TRYPTOPHAN] | 2.72 min |  |  |  | 
CC(C)=CCCC(C)=CCCC(C)=CCCC=C(C)CCC=C(C)CCC=C(C)C [SQUALENE] | 14 min | 13.6 min | 14.8 min | 15.6 min | 
O=C(O)CCC(=O)C(=O)O [OXOGLUTARATE] |  |  |  |  | 1.41 min

Structure (SMILES) | LC retention time [1] | LC retention time [2] | LC retention time [3] | LC retention time [4] | LC retention time [5]
NCCc1cc(O)c(O)cc1O [6-HYDROXYDOPAMINE] |  | 0.893 min |  |  | 
NC(Cc1ccc(O)cc1)C(=O)O (centres undefined) [TYROSINE] |  |  |  | 1.33 min | 
NCCc1ccccc1 [PHENETHYLAMINE] |  | 0.963 min | 1.54 min |  | 
CC(=CCC1=C(C)C(=O)c2ccccc2C1=O)CCCC(C)CCCC(C)CCCC(C)C (centres undefined) [PHYLLOQUINONE] | 14.1 min | 13.3 min | 14.7 min | 15.5 min | 
NCCc1c[nH]c2ccccc12 [TRYPTAMINE] | 3.5 min | 2.77 min | 3.97 min | 4.56 min | 
O=CCc1ccccc1 [PHENYLACETALDEHYDE] |  | 1.09 min |  |  | 
CCC=CCC1C(=O)CCC1CC(=O)OC (centres undefined) [METHYL JASMONATE] | 9.96 min | 9.27 min | 10.5 min | 11.2 min | 
O=C1CCC(C(=O)O)N1 (centres undefined) [OXOPROLINE] |  |  |  | 1.34 min | 1.32 min
CC(CCCC(C)(C)O)C1CCC2C3CC=C4CC(O)CCC4(C)C3CCC12C (centres undefined) [25-HYDROXYCHOLESTEROL] | 17.8 min | 17 min | 18.3 min | 13.4 min | 
O=C(O)C=C(CC(=O)O)C(=O)O [TRANS-ACONITATE] | 0.887 min |  |  |  | 
CCCCC(CC)COC(=O)c1ccccc1C(=O)OCC(CC)CCCC (centres undefined) [BIS(2-ETHYLHEXYL)PHTHALATE] | 17.7 min | 17 min | 18.3 min | 19 min | 
O=C(O)C(O)COP(=O)(O)O (centres undefined) [3-PHOSPHOGLYCERATE] |  | 0.663 min |  | 1.39 min | 
CC1C(=O)Nc2ccccc21 (centres undefined) [3-METHYL-2-OXINDOLE] | 6.16 min | 5.56 min | 6.5 min | 7.09 min | 
CC12CCC3c4ccc(O)cc4CCC3C1CCC2O (stereo not drawn) [ESTRADIOL-17ALPHA] | 9.22 min | 8.64 min | 9.66 min | 10.3 min | 
CC(=O)OCC(=O)C1CCC2C3CCC4=CC(=O)CCC4(C)C3CCC12C (centres undefined) [DEOXYCORTICOSTERONE ACETATE] | 11.1 min | 10.5 min | 11.6 min | 12.2 min | 
Oc1ccc(O)cc1 [HYDROQUINONE] |  |  |  |  | 4.63 min
Nc1nc2nccnc2c(=O)[nH]1 [PTERIN] |  |  |  | 1.33 min | 1.33 min
CC1(O)CCOC(=O)C1 (centres undefined) [MEVALOLACTONE] |  | 0.903 min | 1.46 min | 1.84 min | 
CC(C)CCCC(C)C1CCC2C3=CC=C4CC(O)CCC4(C)C3CCC21C (centres undefined) [7-DEHYDROCHOLESTEROL] | 15.1 min | 9.92 min | 10.8 min | 11.4 min | 
Nc1nc2c(ncn2C2OC3COP(=O)(O)OC3C2O)c(=O)[nH]1 (centres undefined) [CYCLIC GMP] |  |  |  | 1.34 min | 1.33 min

Structure (SMILES) | LC retention time [1] | LC retention time [2] | LC retention time [3] | LC retention time [4] | LC retention time [5]
O=C(O)c1cccc(O)c1 [3-HYDROXYBENZOATE] | 4.28 min | 3.62 min | 4.72 min | 5.31 min | 
Cc1ccc(O)c(O)c1 [4-METHYLCATECHOL] | 1.62 min | 1.24 min | 1.97 min | 2.48 min | 
O=C(O)c1ccc[nH]1 [PYRROLE-2-CARBOXYLATE] | 3.07 min | 0.73 min | 1.19 min | 1.54 min | 
O=C1CCCCO1 [5-VALEROLACTONE] | 2.73 min | 2.06 min | 3.24 min | 3.96 min | 
O=C(O)C(=O)Cc1ccccc1 [PHENYLPYRUVATE] | 4.98 min |  |  |  | 
CCOC(=O)Cc1c[nH]c2ccccc12 [ETHYL 3-INDOLEACETATE] | 9.1 min | 8.46 min | 9.59 min | 10.2 min | 
NCCc1ccc(O)cc1 [TYRAMINE] | 0.883 min | 0.673 min | 1.09 min | 1.4 min | 
O=C(O)C(O)C(O)C(O)C(O)COP(=O)(O)O (centres undefined) [6-PHOSPHOGLUCONATE] |  |  |  | 1.32 min | 
CCCCCCCCC=CCCCCCCCCCCCCCC(=O)[O-] [NERVONATE] | 18.2 min | 17.4 min | 18.7 min | 18.7 min | 
CC(C)=CCCC(C)C1CCC2C3CC=C4CC(O)CCC4(C)C3CCC12C (centres undefined) [DESMOSTEROL] | 15.1 min | 14.3 min | 15.8 min | 16.6 min | 
O=C(O)CCCC(=O)O [GLUTARATE] | 1.34 min |  |  |  | 
O=C(O)C=CC(=O)O [MALEATE] |  | 0.693 min |  |  | 
Nc1cc(O)cc(C(=O)O)c1 [3-AMINO-5-HYDROXYBENZOATE] |  |  |  | 1.32 min | 
O=C(O)c1ccc2ccccc2n1 [2-QUINOLINECARBOXYLATE] | 3.6 min | 2.93 min | 4.05 min | 4.63 min | 
Nc1ncnc2c1ncn2C1OC(CO)C(O)C1O (centres undefined) [ADENOSINE] |  |  |  | 1.33 min | 1.35 min
NC(=O)CCCCC1CCSS1 (centres undefined) [LIPOAMIDE] | 6.65 min | 6.08 min | 7.07 min | 7.65 min | 
COc1cc(CCN)ccc1O [3-METHOXYTYRAMINE] | 1.13 min | 0.863 min | 1.37 min | 1.78 min | 
O=C([O-])c1c[nH]c(=O)[nH]c1=O [URACIL 5-CARBOXYLATE] |  |  | 1.07 min | 1.39 min | 1.36 min
CC(=O)NC(CCC(=O)O)C(=O)O (centres undefined) [N-ACETYLGLUTAMATE] | 0.897 min |  | 1.06 min | 1.36 min | 1.35 min
